Measured values reported in ChEMBL document CHEMBL1138106, “The discovery of a potent and selective lethal factor inhibitor for adjunct therapy of anthrax infection” (Bioorg Med Chem Lett, 2006).
Converted amounts (≈) assume the structure as drawn.

Experiments:
[1] = Half life in Beagle dog at 1 mg/kg, iv; assay type: ADME, organism-based, Canis lupus familiaris; parameters: dose 1 mg/kg, route intravenous; conditions: in vivo
[2] = Volume of distribution in Guinea pig at 2 mg/kg, iv; assay type: ADME, organism-based, Cavia porcellus; parameters: dose 2 mg/kg, route intravenous; conditions: in vivo, read-out: Vdss
[3] = Bioavailability in Sprague-Dawley rat […], po; assay type: ADME, organism-based; conditions: in vivo
[4] = Volume of distribution in Dutch Belted rabbit at 2 mg/kg, iv; assay type: ADME, organism-based, Oryctolagus cuniculus; parameters: dose 2 mg/kg, route intravenous; conditions: in vivo, read-out: Vdss
[5] = target: T1, Endothelin-converting enzyme 1 (Homo sapiens) (UniProt P42892); assay: Inhibition of ECE at 10 uM
T1 sequence (whole entry): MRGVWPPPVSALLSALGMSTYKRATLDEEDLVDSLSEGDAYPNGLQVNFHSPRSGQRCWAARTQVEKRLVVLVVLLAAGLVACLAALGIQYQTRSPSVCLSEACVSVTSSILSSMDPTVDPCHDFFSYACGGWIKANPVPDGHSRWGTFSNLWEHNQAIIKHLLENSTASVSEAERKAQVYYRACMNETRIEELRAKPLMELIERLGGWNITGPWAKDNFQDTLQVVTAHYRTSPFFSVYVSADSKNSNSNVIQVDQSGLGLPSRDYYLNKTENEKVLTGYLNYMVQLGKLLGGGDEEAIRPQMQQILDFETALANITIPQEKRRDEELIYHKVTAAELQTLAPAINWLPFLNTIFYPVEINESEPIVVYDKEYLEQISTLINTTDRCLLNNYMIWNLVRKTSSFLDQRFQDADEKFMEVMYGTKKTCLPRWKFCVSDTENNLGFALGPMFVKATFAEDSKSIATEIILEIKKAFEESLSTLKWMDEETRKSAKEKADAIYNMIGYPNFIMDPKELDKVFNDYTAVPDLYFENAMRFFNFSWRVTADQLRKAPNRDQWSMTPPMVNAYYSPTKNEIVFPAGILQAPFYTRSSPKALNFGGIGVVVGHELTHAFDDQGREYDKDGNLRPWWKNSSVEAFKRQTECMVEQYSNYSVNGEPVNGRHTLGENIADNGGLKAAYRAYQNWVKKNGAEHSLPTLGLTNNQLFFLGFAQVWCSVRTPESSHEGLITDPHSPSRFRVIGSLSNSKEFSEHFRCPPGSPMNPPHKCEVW

[6] = Clearance in Guinea pig at 2 mg/kg, iv; assay type: ADME, organism-based, Cavia porcellus; parameters: dose 2 mg/kg, route intravenous; conditions: in vivo
[7] = Bioavailability in Dutch Belted rabbit […], po; assay type: ADME, organism-based, Oryctolagus cuniculus; conditions: in vivo
Neprilysin = Neprilysin (Homo sapiens, UniProt P08473); assay: Inhibition of NEP
Chain of Neprilysin (P08473 whole entry): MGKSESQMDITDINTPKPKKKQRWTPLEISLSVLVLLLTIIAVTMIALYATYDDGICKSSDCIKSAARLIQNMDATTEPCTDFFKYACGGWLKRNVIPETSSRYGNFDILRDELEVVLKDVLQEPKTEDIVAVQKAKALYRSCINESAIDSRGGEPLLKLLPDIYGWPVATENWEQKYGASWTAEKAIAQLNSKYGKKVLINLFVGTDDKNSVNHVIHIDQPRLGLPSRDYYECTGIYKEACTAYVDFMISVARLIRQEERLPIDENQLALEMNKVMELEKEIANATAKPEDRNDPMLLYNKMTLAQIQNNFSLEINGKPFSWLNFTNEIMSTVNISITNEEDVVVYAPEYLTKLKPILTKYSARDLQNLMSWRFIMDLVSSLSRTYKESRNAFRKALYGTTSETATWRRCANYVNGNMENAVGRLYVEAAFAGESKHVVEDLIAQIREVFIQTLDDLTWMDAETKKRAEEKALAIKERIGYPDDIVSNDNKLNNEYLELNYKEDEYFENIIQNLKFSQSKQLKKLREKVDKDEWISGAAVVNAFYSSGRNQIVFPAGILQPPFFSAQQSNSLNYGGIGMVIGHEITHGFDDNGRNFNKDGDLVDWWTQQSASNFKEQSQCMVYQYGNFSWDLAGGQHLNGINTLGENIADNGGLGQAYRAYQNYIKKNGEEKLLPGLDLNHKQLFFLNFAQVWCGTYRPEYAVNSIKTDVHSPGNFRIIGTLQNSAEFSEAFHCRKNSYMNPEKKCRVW

[8] = Volume of distribution in BALB/c mice at 10 mg/kg, iv; assay type: ADME, organism-based; parameters: dose 10 mg/kg, route intravenous; conditions: mouse, in vivo, read-out: Vdss
[9] = Volume of distribution in Sprague-Dawley rat at 1 mg/kg, iv; assay type: ADME, organism-based; parameters: dose 1 mg/kg, route intravenous; conditions: in vivo, read-out: Vdss
[10] = Volume of distribution in New Zealand White rabbit at 5 mg/kg, iv; assay type: ADME, organism-based, Oryctolagus cuniculus; parameters: dose 5 mg/kg, route intravenous; conditions: in vivo, read-out: Vdss
[11] = Bioavailability in Guinea pig at 1 mg/ml, po; assay type: ADME, organism-based, Cavia porcellus; conditions: in vivo
[12] = Half life in Dutch Belted rabbit at 2 mg/kg, iv; assay type: ADME, organism-based, Oryctolagus cuniculus; parameters: dose 2 mg/kg, route intravenous; conditions: in vivo
[13] = Cmax in Beagle dog at 1 mg/kg, iv; assay type: ADME, organism-based, Canis lupus familiaris; parameters: dose 1 mg/kg, route intravenous; conditions: in vivo
[14] = Volume of distribution in rhesus monkey at 1 mg/kg, iv; assay type: ADME, organism-based, Macaca mulatta; parameters: dose 1 mg/kg, route intravenous; conditions: in vivo, read-out: Vdss
[15] = Solubility in water; assay type: physicochemical
[16] = Tmax in Dutch Belted rabbit at 2 mg/kg, iv; assay type: ADME, organism-based, Oryctolagus cuniculus; parameters: dose 2 mg/kg, route intravenous; conditions: in vivo
[17] = Half life in rhesus monkey at 1 mg/kg, iv; assay type: ADME, organism-based, Macaca mulatta; parameters: dose 1 mg/kg, route intravenous; conditions: in vivo
[18] = Cmax in rhesus monkey at 1 mg/kg, iv; assay type: ADME, organism-based, Macaca mulatta; parameters: dose 1 mg/kg, route intravenous; conditions: in vivo
[19] = target: Angiotensin-converting enzyme (Homo sapiens) (UniProt P12821); assay: Inhibition of ACE at 10 uM
Chain of Angiotensin-converting enzyme (Homo sapiens) (P12821 whole entry): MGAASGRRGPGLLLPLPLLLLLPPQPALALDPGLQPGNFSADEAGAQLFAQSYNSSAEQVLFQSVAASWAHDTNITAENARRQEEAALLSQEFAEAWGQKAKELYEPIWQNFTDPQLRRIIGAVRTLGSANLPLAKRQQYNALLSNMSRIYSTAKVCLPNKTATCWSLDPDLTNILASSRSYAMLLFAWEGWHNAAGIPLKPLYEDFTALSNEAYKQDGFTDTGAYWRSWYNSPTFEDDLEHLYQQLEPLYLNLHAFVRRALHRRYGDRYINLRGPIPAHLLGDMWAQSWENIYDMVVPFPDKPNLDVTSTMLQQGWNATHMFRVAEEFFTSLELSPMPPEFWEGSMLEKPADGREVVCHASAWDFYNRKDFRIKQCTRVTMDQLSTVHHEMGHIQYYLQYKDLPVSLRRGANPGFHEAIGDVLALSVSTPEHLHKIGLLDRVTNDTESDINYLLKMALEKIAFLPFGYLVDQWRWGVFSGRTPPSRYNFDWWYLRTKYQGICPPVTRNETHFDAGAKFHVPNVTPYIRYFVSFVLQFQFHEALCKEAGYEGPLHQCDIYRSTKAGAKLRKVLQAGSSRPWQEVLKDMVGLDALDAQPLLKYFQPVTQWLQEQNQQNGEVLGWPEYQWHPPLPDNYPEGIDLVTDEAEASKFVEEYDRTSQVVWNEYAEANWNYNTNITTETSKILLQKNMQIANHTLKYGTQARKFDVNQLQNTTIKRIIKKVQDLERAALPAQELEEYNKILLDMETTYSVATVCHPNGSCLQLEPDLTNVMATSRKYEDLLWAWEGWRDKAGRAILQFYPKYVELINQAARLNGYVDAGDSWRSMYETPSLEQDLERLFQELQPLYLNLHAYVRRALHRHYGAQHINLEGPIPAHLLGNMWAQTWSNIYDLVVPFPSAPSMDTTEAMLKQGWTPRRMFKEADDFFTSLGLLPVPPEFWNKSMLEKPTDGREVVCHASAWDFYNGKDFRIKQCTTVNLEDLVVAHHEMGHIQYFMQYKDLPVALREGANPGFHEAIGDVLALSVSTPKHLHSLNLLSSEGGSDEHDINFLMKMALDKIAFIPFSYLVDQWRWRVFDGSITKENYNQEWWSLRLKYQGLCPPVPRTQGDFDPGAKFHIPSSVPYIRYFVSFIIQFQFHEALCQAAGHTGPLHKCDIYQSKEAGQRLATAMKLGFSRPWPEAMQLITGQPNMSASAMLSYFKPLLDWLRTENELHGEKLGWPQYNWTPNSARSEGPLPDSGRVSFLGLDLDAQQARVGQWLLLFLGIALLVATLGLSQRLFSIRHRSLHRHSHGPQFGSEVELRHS

Lethal factor = target: T2, Lethal factor (Bacillus anthracis, UniProt P15917); assay: Inhibition of LF; conditions: read-out: IC50
T2 sequence (P15917 whole entry): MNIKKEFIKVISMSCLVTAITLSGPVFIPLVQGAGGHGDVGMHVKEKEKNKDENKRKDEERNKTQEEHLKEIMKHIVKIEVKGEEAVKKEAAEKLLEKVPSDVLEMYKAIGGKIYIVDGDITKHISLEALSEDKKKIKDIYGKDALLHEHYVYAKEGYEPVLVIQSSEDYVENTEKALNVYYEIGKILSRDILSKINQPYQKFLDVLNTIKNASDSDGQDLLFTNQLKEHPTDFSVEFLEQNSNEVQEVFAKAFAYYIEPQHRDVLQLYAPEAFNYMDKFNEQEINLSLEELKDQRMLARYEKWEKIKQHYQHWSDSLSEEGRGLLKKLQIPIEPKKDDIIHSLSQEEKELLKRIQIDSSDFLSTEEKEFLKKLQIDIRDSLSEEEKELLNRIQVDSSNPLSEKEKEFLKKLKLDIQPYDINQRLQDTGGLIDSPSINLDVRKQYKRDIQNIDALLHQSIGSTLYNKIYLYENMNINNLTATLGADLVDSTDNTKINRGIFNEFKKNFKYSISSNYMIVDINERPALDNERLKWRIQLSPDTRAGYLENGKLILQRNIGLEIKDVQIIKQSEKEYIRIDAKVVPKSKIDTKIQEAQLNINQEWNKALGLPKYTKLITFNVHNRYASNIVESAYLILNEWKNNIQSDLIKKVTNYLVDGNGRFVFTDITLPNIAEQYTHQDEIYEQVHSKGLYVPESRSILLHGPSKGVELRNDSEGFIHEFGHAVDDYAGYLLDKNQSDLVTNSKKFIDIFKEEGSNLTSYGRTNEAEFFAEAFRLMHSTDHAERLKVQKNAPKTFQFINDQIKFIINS

[20] = Clearance in Dutch Belted rabbit at 2 mg/kg, iv; assay type: ADME, organism-based, Oryctolagus cuniculus; parameters: dose 2 mg/kg, route intravenous; conditions: in vivo
[21] = Tmax in Beagle dog at 1 mg/kg, iv; assay type: ADME, organism-based, Canis lupus familiaris; parameters: dose 1 mg/kg, route intravenous; conditions: in vivo
[22] = Bioavailability in Sprague-Dawley rat at 2 mg/ml, po; assay type: ADME, organism-based; conditions: in vivo
[23] = target: Disintegrin and metalloproteinase domain-containing protein 17 (Homo sapiens, UniProt P78536); assay: Inhibition of TACE
Chain of Disintegrin and metalloproteinase domain-containing protein 17 (P78536 whole entry, the tested form may be a part): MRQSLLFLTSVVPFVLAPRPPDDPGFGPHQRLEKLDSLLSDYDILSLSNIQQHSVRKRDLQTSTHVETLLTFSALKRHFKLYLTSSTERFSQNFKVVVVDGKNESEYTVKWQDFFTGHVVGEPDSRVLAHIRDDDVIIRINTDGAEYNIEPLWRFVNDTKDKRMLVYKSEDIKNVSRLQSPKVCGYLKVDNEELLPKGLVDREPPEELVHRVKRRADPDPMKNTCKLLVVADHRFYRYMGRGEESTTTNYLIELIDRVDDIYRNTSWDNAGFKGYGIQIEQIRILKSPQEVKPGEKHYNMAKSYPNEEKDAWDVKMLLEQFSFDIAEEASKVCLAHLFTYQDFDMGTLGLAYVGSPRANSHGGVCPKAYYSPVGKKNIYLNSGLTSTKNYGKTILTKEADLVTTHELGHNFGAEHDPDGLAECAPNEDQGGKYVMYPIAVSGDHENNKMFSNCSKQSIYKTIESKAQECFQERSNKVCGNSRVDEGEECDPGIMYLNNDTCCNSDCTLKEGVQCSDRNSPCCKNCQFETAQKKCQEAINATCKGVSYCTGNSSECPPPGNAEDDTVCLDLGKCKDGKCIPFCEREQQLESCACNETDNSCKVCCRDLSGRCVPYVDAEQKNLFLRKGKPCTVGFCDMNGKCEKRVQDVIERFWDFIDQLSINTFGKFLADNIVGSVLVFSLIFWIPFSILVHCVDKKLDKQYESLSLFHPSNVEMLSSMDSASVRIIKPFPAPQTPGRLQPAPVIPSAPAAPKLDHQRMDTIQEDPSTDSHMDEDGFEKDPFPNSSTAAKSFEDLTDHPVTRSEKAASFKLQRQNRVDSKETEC

[24] = Clearance in BALB/c mice at 10 mg/kg, iv; assay type: ADME, organism-based; parameters: dose 10 mg/kg, route intravenous; conditions: mouse, in vivo
[25] = Tmax in rhesus monkey at 1 mg/kg, iv; assay type: ADME, organism-based, Macaca mulatta; parameters: dose 1 mg/kg, route intravenous; conditions: in vivo
[26] = Tmax in BALB/c mice at 10 mg/kg, iv; assay type: ADME, organism-based; parameters: dose 10 mg/kg, route intravenous; conditions: mouse, in vivo
[27] = Clearance in Sprague-Dawley rat at 1 mg/kg, iv; assay type: ADME, organism-based; parameters: dose 1 mg/kg, route intravenous; conditions: in vivo
Stromelysin-1 = Stromelysin-1 (Homo sapiens, UniProt P08254); assay: Inhibition of MMP3
Chain of Stromelysin-1 (P08254 whole entry): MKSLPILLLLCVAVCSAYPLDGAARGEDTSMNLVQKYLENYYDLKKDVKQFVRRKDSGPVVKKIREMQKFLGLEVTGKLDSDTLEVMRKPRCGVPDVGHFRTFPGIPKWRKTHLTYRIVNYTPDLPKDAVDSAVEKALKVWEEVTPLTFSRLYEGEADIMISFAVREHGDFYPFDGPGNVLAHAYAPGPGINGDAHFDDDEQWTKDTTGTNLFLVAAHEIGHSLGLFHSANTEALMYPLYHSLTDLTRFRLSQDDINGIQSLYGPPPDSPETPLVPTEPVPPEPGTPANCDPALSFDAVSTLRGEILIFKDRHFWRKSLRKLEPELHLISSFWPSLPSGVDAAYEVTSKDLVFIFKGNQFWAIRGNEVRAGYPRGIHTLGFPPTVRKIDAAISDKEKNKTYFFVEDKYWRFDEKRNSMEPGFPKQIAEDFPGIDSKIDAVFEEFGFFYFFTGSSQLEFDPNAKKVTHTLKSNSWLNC

[28] = Half life in New Zealand White rabbit at 5 mg/kg, iv; assay type: ADME, organism-based, Oryctolagus cuniculus; parameters: dose 5 mg/kg, route intravenous; conditions: in vivo
[29] = Bioavailability in rhesus monkey […], po; assay type: ADME, organism-based, Macaca mulatta; conditions: in vivo
[30] = Half life in Guinea pig at 2 mg/kg, iv; assay type: ADME, organism-based, Cavia porcellus; parameters: dose 2 mg/kg, route intravenous; conditions: in vivo
[31] = Cmax in BALB/c mice at 10 mg/kg, iv; assay type: ADME, organism-based; parameters: dose 10 mg/kg, route intravenous; conditions: mouse, in vivo
[32] = target: Matrix metalloproteinase-14 (Homo sapiens, UniProt P50281); assay: Inhibition of MMP14
[33] = Cmax in Guinea pig at 2 mg/kg, iv; assay type: ADME, organism-based, Cavia porcellus; parameters: dose 2 mg/kg, route intravenous; conditions: in vivo
[34] = Volume of distribution in Beagle dog at 1 mg/kg, iv; assay type: ADME, organism-based, Canis lupus familiaris; parameters: dose 1 mg/kg, route intravenous; conditions: in vivo, read-out: Vdss

SMILES: Cc1cc(S(=O)(=O)N[C@@H](C(=O)NO)C2CCOCC2)ccc1F
- half-life [1]: 4.7 h
- Vd [2]: 1.1 L/kg
- bioavailability [3]: 51%
- Vd [4]: 1.5 L/kg
- inhibition [5]: < 10%
- clearance [6]: 1.44 L/h/kg
- bioavailability [7]: 0.5%
- IC50 (Neprilysin): 9.4 µM
- Vd [8]: 1 L/kg
- Vd [9]: 3.9 L/kg
- Vd [10]: 3.8 L/kg
- bioavailability [11]: 22%
- half-life [12]: 2 h
- Cmax [13]: 0.73 µM
- Vd [14]: 3.3 L/kg
- solubility [15]: 2.5 mg/mL (≈ 7.22 mM)
- Tmax [16]: 0.3 h
- half-life [17]: 2.4 h
- Cmax [18]: 0.12 µM
- inhibition [19]: < 10%
- IC50 (Lethal factor): 0.054 µM
- clearance [20]: 0.84 L/h/kg
- Tmax [21]: 0.8 h
- bioavailability [22]: 71%
- IC50 [23]: 4.3 µM
- clearance [24]: 4.32 L/h/kg
- Tmax [25]: 1.3 h
- Tmax [26]: 0.3 h
- clearance [27]: 4.8 L/h/kg
- IC50 (Stromelysin-1): 1.4 µM
- half-life [28]: 2.5 h
- bioavailability [29]: 16%
- half-life [30]: 1.2 h
- Cmax [31]: 0.12 µM
- IC50 [32]: 6.5 µM
- Cmax [33]: 0.25 µM
- Vd [34]: 2.4 L/kg
